Test results: publication PMC12254355 (Nature Communications, 2025)
Ends that are not written are not given here.

How the values were obtained:
E. coli AIC221 = conditions: AIC221, 24 h
[1] = system: E. faecium ATCC 700221 - VRE; conditions: ATCC 700221, 24 h
HEK293T cells = conditions: for CC50 vs HEK293T cells (source data of Figure 4a): 24 h
human red blood cells = conditions: pH 7.4
A. baumannii ATCC 19606 = conditions: ATCC 19606, 24 h
E. coli ATCC 11775 = conditions: ATCC 11775, 24 h
P. aeruginosa PAO1 = conditions: PAO1, 24 h
P. aeruginosa PA14 = conditions: PA14, 24 h

Row | Compound | Minimal Inhibitory Concentration, E. coli AIC221 (-) (E. coli AIC221) [µmol/L] | Minimal Inhibitory Concentration, E. faecium ATCC 700221 - VRE (+) [1] [µmol/L] | SIcytotoxicity (HEK293T cells) | HC50 (human red blood cells) | Minimal Inhibitory Concentration, A. baumannii ATCC 19606 (-) (A. baumannii ATCC 19606) [µmol/L] | Minimal Inhibitory Concentration, E. coli ATCC 11775 (-) (E. coli ATCC 11775) [µmol/L] | Minimal Inhibitory Concentration, P. aeruginosa PAO1 (-) (P. aeruginosa PAO1) [µmol/L] | Minimal Inhibitory Concentration, P. aeruginosa PA14 (-) (P. aeruginosa PA14) [µmol/L] | CC50 vs HEK293T cells (source data of Figure 4a) (HEK293T cells) [µM] | CC50 vs HEK293T cells (HEK293T cells) [µM]
1 | RHRIVRTYIAKFGLK [ISOB-2] | 64 | 32 | 7.5 | 1.085e+083 |  |  |  |  |  | 
2 | RKFKWGKLFSTAKKLYKKGKKLSKNKNFKKALK [UniprotKB-12] | 2 | 32 | 11.9 | 604.3 | 64 | 32 | 4 | 4 | 23.71 | 
3 | KWGKLFSAGKKLLKKAKKL [Arachnoserver-4] | 16 | 16 | 2.4 | 1.085e+083 | 64 | 32 | 8 | 16 | 19.57 | 20
4 | RKRRRFISMLKARAKRR [Conoserver-15] |  | 32 | 0.7 | 1.085e+083 |  |  |  |  | 22.52 | 
5 | KKWRELSRLSRVLQIL [Conoserver-14] | 8 | 32 | 7.3 | 1826.0 | 16 | 16 | 64 |  |  | 
6 | LRAKMLNSKFIKL [Conoserver-5] |  |  |  | 1.085e+083 |  |  |  |  |  | 
7 | KQKYLIKRSRAKMQNHKLFKLTKR [Conoserver-16] |  | 64 | 1.5 | 1.085e+083 |  |  |  |  |  | 
8 | KLWNSKLARKIRTKGLKYVKNFAK [UniprotKB-3] |  | 32 | 1.5 | 8.23e+034 |  |  |  |  | 11.61 | 
9 | KRRRASPLWKRRRFLSMLKARAK [UniprotKB-10] |  | 32 | 1.3 | 627.2 |  |  |  |  | 43.12 | 
10 | KKQIRLYLLKYYGKKSSSKSVRKIVISK [Arachnoserver-20] |  | 32 | 2.8 | 896.7 |  |  |  |  |  | 
11 | RRASPLWKRRRFLSMLKARAKRTGYK [Conoserver-3] | 64 | 32 | 6.0 | 459.2 |  |  | 64 |  |  | 
12 | KWLGKLGVILSHL [UniprotKB-15] | 32 | 64 | 1.4 | 1.374e+045 | 64 | 32 |  |  | 45.97 | 
13 | GKWLISSLVAKHL [UniprotKB-6] |  |  | 0.3 | 686.0 |  |  |  |  | 19.46 | 19
14 | KRLKGFAKKLWNSKLARKIRTKGLKYVKNFAK [UniprotKB-7] |  | 8 | 3.7 | 207.9 |  |  |  |  | 14.78 | 
15 | KRRRASPLWKRRRFLSMLKARAK [Conoserver-2] |  | 32 | 3.6 | 1570.0 |  |  | 64 |  |  | 
16 | LTKWLGKLGVIL [UniprotKB-11] |  |  | 4.4 | 146.7 |  |  |  |  |  | 
17 | QPRRVKRFKKFFKKLKNSVKKRAKKF [ISOB-7] | 64 | 32 | 4.0 | 569.0 |  |  | 64 |  |  | 
18 | CC(C)C[C@H](NC(=O)[C@H](Cc1ccccc1)NC(=O)CNC(=O)[C@H](CCCNC(=N)N)NC(=O)[C@H](CCCNC(=N)N)NC(=O)[C@H](CCC(N)=O)NC(=O)[C@H](Cc1c[nH]c2ccccc12)NC(=O)[C@H](CC(C)C)NC(=O)[C@@H]1CCCN1C(=O)[C@H](CO)NC(=O)[C@H](C)NC(=O)[C@H](CCCNC(=N)N)NC(=O)CNC(=O)[C@H](CCCNC(=N)N)NC(=O)[C@@H](N)CCCCN)C(=O)N[C@@H](CO)C(=O)N[C@@H](CCCCN)C(=O)N[C@@H](CC(C)C)C(=O)N[C@@H](CCCCN)C(=O)N[C@@H](C)C(=O)N[C@@H](CCCNC(=N)N)C(=O)N[C@@H](C)C(=O)N[C@@H](CCCCN)C(=O)N[C@@H](CCCNC(=N)N)C(=O)N[C@@H](CC(N)=O)C(=O)NCC(=O)N[C@@H](C)C(=O)N[C@@H](Cc1ccccc1)C(=O)N[C@@H](Cc1c[nH]cn1)C(=O)N[C@@H](CC(C)C)C(=O)N1CCC[C@H]1C(=O)N[C@@H](CCCNC(=N)N)C(=O)O [Conoserver-7] |  | 32 | 2.5 | 1.085e+083 |  |  | 64 |  |  | 
19 | RLRAKMRNSKLFKLTKR [Conoserver-10] |  |  |  | 1.085e+083 |  |  |  |  |  | 
20 | KRKGYLRLVPEERIWQKGLWWLRRLETDSDKLQK [ISOB-3] |  |  |  | 1.085e+083 |  |  |  |  |  | 
21 | RRVKRFKKFFKKL [ISOB-6] |  | 32 | 6.5 | 1.085e+083 |  |  | 32 | 64 |  | 
22 | RQEYPTKRLRAKMLNSKFIKLIKR [Conoserver-12] | 32 | 16 | 5.8 | 1.085e+083 |  |  |  |  |  | 
23 | FLKKIWRSKLVKRL [UniprotKB-9] |  |  | 1.3 | 219457.0 |  |  |  | 16 | 20.18 | 20
24 | RRVKRFKKFFMKL [UniprotKB-18] | 64 | 32 | 3.1 | 1.827e+053 |  |  | 32 |  |  | 
25 | SFKKILSAGKKLFKKAKKL [Arachnoserver-29] | 4 | 16 | 4.3 | 1.085e+083 |  | 16 | 16 | 16 | 17.1 | 
26 | PLWKRRRFLSMLKARAKR [Conoserver-4] |  | 32 | 2.6 | 707.7 |  |  | 64 |  |  | 
